Assay [1] deals with T1, ChT-L component of the multicatalytic proteinase complex (MPC) (Bos taurus, UniProt Q32KL2).
T1 construct: The MPC was isolated from frozen bovine pituitaries; tissue PelFreeze, Inc. (Rogers, Ark.) (supplier of the tissue; the enzyme was purified in house); host or cells: bovine pituitaries
Kind of assay: ChT-L activity of the MPC with Cbz-Gly-Gly-Leu-pNA; Ki by Dixon plots. Conditions: substrate Cbz-Gly-Gly-Leu-pNA (0.1 to 0.4 MM); mean of 3 to 6 experiments ± SEM. Format: biochemical, bovine. From the text:
(§1) The MPC was isolated from frozen bovine pituitaries, obtained from PelFreeze, Inc. (Rogers, Ark.) essentially as described in Orlowski & Michaud, Biochemistry 28:9270-9277 (1989), incorporated herein by reference.
(§2) The substrates Cbz-Gly-Gly-Leu-pNA, Cbz-D-Ala-Leu-Arg-2NA and Cbz-Leu-Leu-Glu-2NA were used to determine the activities of the ChT-L, T-L and PGPH components of the MPC, respectively, as previously described by Wilk and Orlowski, J. Neurochem. 35:1172-1182 (1980) and J. Neurochem 40:842-849 (1983), where pNA is p-nitroaniline and 2NA is 2-naphthylamide.The rate of release of the chromogenic group (aromatic amine) was measured after diazotization (Goldbarg & Rutenburg, Cancer 11:283-291 (1958) Bratton & Marshall, J. Biol. Chem. 128:537-550 (1939)).
(§3) Reaction mixtures contained 0.4 to 0.8 mM substrate, Tris-HCl buffer (0.05M; pH 8.0) and enzyme (1 to 3 μg) in a final volume of 0.25 ml. Incubations were at 37° C. The reactions were stopped by addition of an equal volume of 10% trichloroacetic acid and diazotization was then carried out.
(§4) Inhibition constant (K1) values for the inhibitors of the present invention towards the various proteolytic activities of the MPC were determined by the method of Dixon, Biochem. J. 55:170-171 (1953). Plots of 1/v vs [I] were made at three (3) different synthetic substrate concentrations and six (6) different inhibitor concentrations [I]. Linear regression analysis gave generally correlation coefficients better than 0.99.
(§5) Inhibition was tested with and without preincubation of the MPC with the inhibitors of the invention. No increase in inhibition was observed after preincubation of the enzyme with the inhibitor for up to 30 min, indicating absence of slow binding phenomena and a rapid equilibration between enzyme and inhibitor.
(§6) Table II provides a summary of the Ki measurements for the various peptidyl aldehydes of the invention synthesized in accordance with Examples 2 and 3.

The target of assay [2] is T2, PGPH component of the multicatalytic proteinase complex (MPC) (Bos taurus, UniProt Q3MHN0).
T2 construct: The MPC was isolated from frozen bovine pituitaries; tissue PelFreeze, Inc. (Rogers, Ark.) (supplier of the tissue; the enzyme was purified in house); host or cells: bovine pituitaries
Description: PGPH activity of the MPC with Cbz-Leu-Leu-Glu-2NA; IC50. Format: biochemical, bovine. The note with it: substrate Cbz-Leu-Leu-Glu-2NA (0.2 to 0.6 mill); inhibitor concentration giving 50% inhibition; read-out: IC50, PGPH component.
Description: as §1, §2, §3
Due to the sigmoidal relationship between reaction rate and substrate concentration for the PGPH activity, only IC50 values (inhibitor concentration giving 50% inhibition) at a substrate concentration of 0.64 mM were determined. […] Some inhibition of the ChT-L activity was also observed, although the Ki for this component was almost 20 times higher than that for the other three activities. […] Indeed, at the concentrations used, each of the inhibitors produced some activation of the T-L activity (data not shown).

Assay [3] deals with T3, BrAAP component of the multicatalytic proteinase complex (MPC) (Bos taurus, UniProt Q2TBP0+Q32KL2+Q3MHN0).
T3 construct: The MPC was isolated from frozen bovine pituitaries; tissue PelFreeze, Inc. (Rogers, Ark.) (supplier of the tissue; the enzyme was purified in house); host or cells: bovine pituitaries
Description: Activity of the BrAAP component of the MPC, coupled two step reaction with aminopeptidase N; Ki by Dixon plots. Conditions: substrate Cbz-Gly-Pro-Ala-Leu-Gly-pAB (1 to 4 mill); mean of 3 to 6 experiments ± SEM; read-out: Ki, BRAAP component. In kind it is biochemical, bovine.
Description: as §1
(§7) Cbz-Gly-Pro-Ala-Leu-Gly-pAB and Cbz-Gly-Pro-Ala-Gly-Gly-pAB, where pAB is p-aminobenzoate, were used as convenient substrates for the determination of the activity of the BrAAP and SNAAP components respectively. The BrAAP component cleaves exclusively the Leu-Gly bond in Cbz-Gly-Pro-Ala-Leu-Gly-pAB, whereas the SNAAP component cleaves the Gly-Gly bond in Cbz-Gly-Pro-Ala-Gly-Gly-pAB.
(§8) A coupled two step reaction in the presence of excess aminopeptidase N (AN) was used for the determination of the BrAAP and SNAAP activities as described previously (Orlowski et al., Biochemistry 32:1563-1572 (1993)). Aminopeptidase N was purified from hog kidneys as described by Pfleiderer, Meth. Enzymol. 19:514-521 (1970) and freed from the contaminating metalloendopeptidase (EC 3.4.24.11) as previously described (Almenoff & Orlowski, Biochemistry 22:590-599 (1983)).
as §4, §5, §6

The target of assay [4] is T4, SNAAP component of the multicatalytic proteinase complex (MPC) (Bos taurus, UniProt Q2TBP0+Q32KL2+Q3MHN0).
T4 construct: The MPC was isolated from frozen bovine pituitaries; tissue PelFreeze, Inc. (Rogers, Ark.) (supplier of the tissue; the enzyme was purified in house); host or cells: bovine pituitaries
Kind of assay: Activity of the SNAAP component of the MPC, coupled two step reaction with aminopeptidase N; Ki by Dixon plots. Conditions: substrate Cbz-Gly-Pro-Ala-Gly-Gly-pAB (1 to 4 mill); mean of 3 to 6 experiments ± SEM. Format: biochemical, bovine.
Description: as §1, §7, §8, §4, §5, §6

The target of assay [5] is T5, multicatalytic proteinase complex (MPC) (Bos taurus, UniProt Q2TBP0+Q32KL2+Q3MHN0).
T5 construct: The MPC was isolated from frozen bovine pituitaries; tissue PelFreeze, Inc. (Rogers, Ark.) (supplier of the tissue; the enzyme was purified in house); host or cells: bovine pituitaries
Description: β-casein degradation by the MPC, HPLC. In kind it is biochemical, bovine. Conditions: 200 μM inhibitor, 30 min incubation, β-casein 200 μg, 20 mM Mg2+, MPC 30 μg. As to the method: as §1
In vitro protein degrading activity of the MPC, and the effects of the various inhibitors of the present invention on such activity, was determined using β-casein and histone H3 as proteolytic substrates. For determining protein degrading activity in the presence and absence of inhibitors, incubation mixtures contained Tris-HCl buffer (0.05M, pH 8.0), β-casein or histone H3, 20 mM Mg^2+ where indicated, and inhibitor dissolved in dimethylsulfoxide, where indicated. In control samples, the inhibitor was replaced by an equal volume of dimethylsulfoxide alone.
In order to measure proteolysis by the MPC, and its inhibition by the inhibitors of the invention, aliquots of the reaction mixtures were removed after various incubation times and subjected to HPLC on a Deltapak column (C4; 5 μm; 300 A; 3.9×150 mm Waters). Elution of histone H3 was carried out with a linear gradient over 30 min. established between 30 and 50% acetonitrile (v/v) in water containing 0.1% trifluoroacetic acid (v/v) at a flow rate of 1 ml/min. Elution of β-casein was carried with a linear gradient established between 10 and 45% acetonitrile (v/v) in water containing 0.1% trifluoroacetic acid (v/v). The rate of protein degradation was determined by measuring the decrease of the peak height of the protein compared with controls in which the enzyme was omitted. Alternatively degradation of the proteins was determined by integrating the area under the peak of the protein at time zero and determining the decrease of the area after incubation with the enzyme.
FIG. 1 depicts the inhibition of β-casein degradation by Cbz-Gly-Pro-Ala-Leu-CHO. HPLC analyses were carried out on samples that had been incubated in the absence and presence of the inhibitor. Incubation mixtures contained β-casein (200 μg), 20 mM Mg^2+, MPC (30 μg) and various concentrations of, inhibitor, if used, in 2 μl of Me2 SO. […]

Assay [6] addresses T3, BrAAP component of the multicatalytic proteinase complex (MPC). The note with it: cited from earlier work.
The target in assay [7] is T2, PGPH component of the multicatalytic proteinase complex (MPC). Conditions: cited from earlier work; for increase of the PGPH activity: low concentrations of SDS (0.02%) or fatty acids, depending on the substrate concentration.
Assay [8] addresses T6, BRAAP component of the MPC (Bos taurus, UniProt Q2TBP0+Q32KL2+Q3MHN0).
T6 construct: The MPC was isolated from frozen bovine pituitaries; tissue PelFreeze, Inc. (Rogers, Ark.) (supplier of the tissue; the enzyme was purified in house); host or cells: bovine pituitaries
Conditions: data from Orlowski et al., Biochemistry 32:1563-1572 (1993), cited from earlier work; for Km: [S] 1.6-8.0.

Read-outs that look alike come from different tables or passages of the source. Peptide text beside a SMILES is read from it. * marks the point of attachment. Cbz = O=C(OCc1ccccc1)*

The values that follow come from patent publication US5580854A, “Substrate-related peptidyl-aldehyde inhibitors of the proteolytic activity of the multicatalytic proteinase complex” (Mount Sinai School of Medicine of The City University of …, priority 1994, dated 1996).

Regarding `CC(C)C[C@@H](C=O)NC(=O)[C@H](C)NC(=O)[C@@H]1CCCN1C(=O)CNC(=O)OCc1ccccc1` [Cbz-Gly-Pro-Ala-Leu-CHO] (Cbz-GPAL-aldehyde), the Ki is 471 ± 48 µM in assay [1], 13.9 ± 1.9 µM in assay [3] and 17.2 ± 3.4 µM in assay [4]. Also, the IC50 in assay [2] is 60 µM. The “β-casein substrate remaining intact” value in assay [5] is listed as around 90%.

On to `C[C@H](NC(=O)[C@@H]1CCCN1C(=O)CNC(=O)OCc1ccccc1)C(=O)N[C@H](C=O)Cc1ccccc1` [Cbz-Gly-Pro-Ala-Phe-CHO] (Cbz-GPAF-aldehyde), for which the Ki in assay [1] came to 1850 ± 750 µM; in assay [3], 305 ± 77 µM; in assay [4], 406 ± 54 µM.

For the molecule `CC(C)[C@@H](C=O)NC(=O)[C@H](Cc1ccccc1)NC(=O)[C@@H]1CCCN1C(=O)CNC(=O)OCc1ccccc1` [Cbz-Gly-Pro-Phe-Val-CHO] (Cbz-GPFV-aldehyde), the Ki worked out at 331 ± 22 µM in assay [1], 47.3 ± 4.9 µM in assay [3] and 24 ± 0.84 µM in assay [4]. Further, the IC50 in assay [2] was 62 µM.

For the molecule `CC(C)C[C@@H](C=O)NC(=O)[C@H](C)NC(=O)CNC(=O)[C@@H]1CCCN1C(=O)OCc1ccccc1` [Cbz-Pro-Gly-Ala-Leu-CHO] (Cbz-PGAL-aldehyde), the Ki in assay [1] came to 16.4 ± 2.7 µM; in assay [3] it was 104 ± 2.3 µM; in assay [4] it was 36.7 ± 3.6 µM.

On to `O=c1oc(Cl)c(Cl)c2ccccc12` [DCI, 3,4-dichloroisocoumarin], for which the “activation of the BrAAP component” value in assay [6] (treatment of the MPC with DCI (10 μM)) is recorded as 10 fold. Moreover, the “inactivation of the PGPH activity” value in assay [7] (DCI (10 μM)) was “almost complete inactivation”.

As for `CCCCCCCCCCCCOS(=O)(=O)[O-].[Na+]` [SDS, sodium dodecyl sulfate], in assay [6] (treatment of the MPC with SDS, synthetic substrates), the “activation of the BrAAP component” value is on record as around 50 fold. Also, the “increase of the PGPH activity” value in assay [7] is given as around 10 fold.

With `CCCCCCCCCCCC(=O)O` [lauric acid], the “increase of the PGPH activity” value in assay [7] is given as around 10 fold.

Regarding Cbz-Gly-Pro-Ala-Leu-Ala-pAB, in assay [8], the Km was 6.7 mM, the kcat was 5.2 s⁻¹ and the “kcat /Km” value is 780 M⁻¹ s⁻¹.

Take “Cbz-Gly-Pro-Ala-Leu-Gly-p-aminobenzoate [Cbz-Gly-Pro-Ala-Leu-Gly-pAB]”: in assay [8], the Km was 5.2 mM, the kcat is 3.75 s⁻¹ and the “kcat /Km” value was 720 M⁻¹ s⁻¹.

As usually defined, the Ki is the equilibrium dissociation constant of an inhibitor or competing ligand from its target. One may read the IC50 as the concentration needed to halve the response being measured. The Km is the substrate concentration at which the rate is half of its maximum. One may read the kcat as the maximal rate divided by the concentration of active sites.
